#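 1) Cells in 96-well plates. 2) Compound, 48 h, 5 concentrations. 3) Linear interpolation between surrounding doses. 4) Unreached endpoint = highest concentration. GI50 marks 50% less growth. Definition used: TGI = concentration required for complete inhibition of growth.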
# Tests used:
# Assay in all cases: NCI tumour cell line growth inhibition, 48 h
# 786-0 renal = test system: 786-0 renal
# A498 renal = test system: A498 renal
# A549 NSCLC = test system: A549 NSCLC
# ACHN renal = test system: ACHN renal
# BT-549 breast = test system: BT-549 breast
# CAKI-1 renal = test system: CAKI-1 renal
# CCRF-CEM leukemia = test system: CCRF-CEM leukemia
# COLO 205 colon = test system: COLO 205 colon
# DU-145 prostate = test system: DU-145 prostate
# EKVX NSCLC = test system: EKVX NSCLC
# HCC-2998 colon = test system: HCC-2998 colon
# HCT-116 colon = test system: HCT-116 colon
# HCT-15 colon = test system: HCT-15 colon
# HL-60(TB) leukemia = test system: HL-60(TB) leukemia
# HOP-62 NSCLC = test system: HOP-62 NSCLC
# HOP-92 NSCLC = test system: HOP-92 NSCLC
# HS 578T breast = test system: HS 578T breast
# HT29 colon = test system: HT29 colon
# IGROV1 ovarian = test system: IGROV1 ovarian
# K-562 leukemia = test system: K-562 leukemia
# KM12 colon = test system: KM12 colon
# LOX IMVI melanoma = test system: LOX IMVI melanoma
# M14 melanoma = test system: M14 melanoma
# MALME-3M melanoma = test system: MALME-3M melanoma
# MCF7 breast = test system: MCF7 breast
# MDA-MB-231 breast = test system: MDA-MB-231 breast
# MDA-MB-435 = test system: MDA-MB-435
# MOLT-4 leukemia = test system: MOLT-4 leukemia
# NCI-H226 lung = test system: NCI-H226 lung
# NCI-H23 lung = test system: NCI-H23 lung
# NCI-H460 lung = test system: NCI-H460 lung
# NCI-H522 lung = test system: NCI-H522 lung
# NCI/ADR-RES ovarian = test system: NCI/ADR-RES ovarian
# OVCAR-3 ovarian = test system: OVCAR-3 ovarian
# OVCAR-4 ovarian = test system: OVCAR-4 ovarian
# OVCAR-5 ovarian = test system: OVCAR-5 ovarian
# OVCAR-8 ovarian = test system: OVCAR-8 ovarian
# PC-3 prostate = test system: PC-3 prostate
# RPMI-8226 leukemia = test system: RPMI-8226 leukemia
# RXF 393 renal = test system: RXF 393 renal
# SF-268 CNS = test system: SF-268 CNS
# SF-295 CNS = test system: SF-295 CNS
# SF-539 CNS = test system: SF-539 CNS
# SK-MEL-2 melanoma = test system: SK-MEL-2 melanoma
# SK-MEL-28 melanoma = test system: SK-MEL-28 melanoma
# SK-MEL-5 melanoma = test system: SK-MEL-5 melanoma
# SK-OV-3 ovarian = test system: SK-OV-3 ovarian
# SN12C renal = test system: SN12C renal
# SNB-19 CNS = test system: SNB-19 CNS
# SNB-75 CNS = test system: SNB-75 CNS
# SR leukemia = test system: SR leukemia
# SW-620 colon = test system: SW-620 colon
# T-47D breast = test system: T-47D breast
# TK-10 renal = test system: TK-10 renal
# U251 CNS = test system: U251 CNS
# UACC-257 melanoma = test system: UACC-257 melanoma
# UACC-62 melanoma = test system: UACC-62 melanoma
# UO-31 renal = test system: UO-31 renal
compound,measurement,setting,value
Cc1sc(C(=O)c2cncnc2N[C@@H]2C[C@H](COS(N)(=O)=O)[C@@H](O)C2)cc1[C@@H]1NCCc2ccc(Cl)cc21,GI50,786-0 renal,12.9 µM
same,TGI,786-0 renal,28.8 µM
same,GI50,A498 renal,4.26 µM
same,TGI,A498 renal,20.2 µM
same,GI50,A549 NSCLC,2.21 µM
same,TGI,A549 NSCLC,22.3 µM
same,GI50,ACHN renal,11.8 µM
same,TGI,ACHN renal,25.7 µM
same,GI50,BT-549 breast,12.8 µM
same,TGI,BT-549 breast,26.6 µM
same,GI50,CAKI-1 renal,1.63 µM
same,TGI,CAKI-1 renal,25.5 µM
same,GI50,CCRF-CEM leukemia,0.0801 µM
same,TGI,CCRF-CEM leukemia,20.1 µM
same,GI50,COLO 205 colon,0.041 µM
same,TGI,COLO 205 colon,11.8 µM
same,GI50,DU-145 prostate,13.2 µM
same,TGI,DU-145 prostate,27.8 µM
same,GI50,EKVX NSCLC,8.88 µM
same,TGI,EKVX NSCLC,25.7 µM
same,GI50,HCC-2998 colon,0.922 µM
same,TGI,HCC-2998 colon,19.9 µM
same,GI50,HCT-116 colon,1.31 µM
same,TGI,HCT-116 colon,22.6 µM
same,GI50,HCT-15 colon,6.64 µM
same,TGI,HCT-15 colon,21.1 µM
same,GI50,HL-60(TB) leukemia,0.294 µM
same,TGI,HL-60(TB) leukemia,13.2 µM
same,GI50,HOP-62 NSCLC,12.9 µM
same,TGI,HOP-62 NSCLC,28.1 µM
same,GI50,HOP-92 NSCLC,0.0783 µM
same,TGI,HOP-92 NSCLC,12.9 µM
same,GI50,HS 578T breast,6.08 µM
same,TGI,HS 578T breast,44 µM
same,GI50,HT29 colon,0.234 µM
same,TGI,HT29 colon,20.9 µM
same,GI50,IGROV1 ovarian,11 µM
same,TGI,IGROV1 ovarian,25.7 µM
same,GI50,K-562 leukemia,4.19 µM
same,TGI,K-562 leukemia,34.2 µM
same,GI50,KM12 colon,13.1 µM
same,TGI,KM12 colon,28.3 µM
same,GI50,LOX IMVI melanoma,0.0959 µM
same,TGI,LOX IMVI melanoma,15.6 µM
same,GI50,M14 melanoma,0.572 µM
same,TGI,M14 melanoma,21.6 µM
same,GI50,MALME-3M melanoma,0.0394 µM
same,TGI,MALME-3M melanoma,15.5 µM
same,GI50,MCF7 breast,0.0138 µM
same,TGI,MCF7 breast,17.3 µM
same,GI50,MDA-MB-231 breast,9.29 µM
same,TGI,MDA-MB-231 breast,24.8 µM
same,GI50,MDA-MB-435,0.156 µM
same,TGI,MDA-MB-435,14.8 µM
same,GI50,MOLT-4 leukemia,0.59 µM
same,TGI,MOLT-4 leukemia,23.4 µM
same,GI50,NCI-H226 lung,10.3 µM
same,TGI,NCI-H226 lung,25.7 µM
same,GI50,NCI-H23 lung,11.8 µM
same,TGI,NCI-H23 lung,27 µM
same,GI50,NCI-H460 lung,0.466 µM
same,TGI,NCI-H460 lung,20.6 µM
same,GI50,NCI-H522 lung,3.49 µM
same,TGI,NCI-H522 lung,25.9 µM
same,GI50,NCI/ADR-RES ovarian,51.8 µM
same,TGI,NCI/ADR-RES ovarian,> 100 µM
same,GI50,OVCAR-3 ovarian,4.98 µM
same,TGI,OVCAR-3 ovarian,21.7 µM
same,GI50,OVCAR-4 ovarian,4.38 µM
same,TGI,OVCAR-4 ovarian,31.1 µM
same,GI50,OVCAR-5 ovarian,9.43 µM
same,TGI,OVCAR-5 ovarian,23.6 µM
same,GI50,OVCAR-8 ovarian,11.7 µM
same,TGI,OVCAR-8 ovarian,58.7 µM
same,GI50,PC-3 prostate,5.44 µM
same,TGI,PC-3 prostate,24.5 µM
same,GI50,RPMI-8226 leukemia,2.01 µM
same,TGI,RPMI-8226 leukemia,22.2 µM
same,GI50,RXF 393 renal,6.35 µM
same,TGI,RXF 393 renal,22 µM
same,GI50,SF-268 CNS,14.4 µM
same,TGI,SF-268 CNS,32.4 µM
same,GI50,SF-295 CNS,11 µM
same,TGI,SF-295 CNS,23.2 µM
same,GI50,SF-539 CNS,1.48 µM
same,TGI,SF-539 CNS,20.3 µM
same,GI50,SK-MEL-2 melanoma,5.58 µM
same,TGI,SK-MEL-2 melanoma,23.9 µM
same,GI50,SK-MEL-28 melanoma,9.88 µM
same,TGI,SK-MEL-28 melanoma,22.1 µM
same,GI50,SK-MEL-5 melanoma,1.94 µM
same,TGI,SK-MEL-5 melanoma,17.3 µM
same,GI50,SK-OV-3 ovarian,2.65 µM
same,TGI,SK-OV-3 ovarian,25.2 µM
same,GI50,SN12C renal,9.85 µM
same,TGI,SN12C renal,24.5 µM
same,GI50,SNB-19 CNS,14.8 µM
same,TGI,SNB-19 CNS,28.8 µM
same,GI50,SNB-75 CNS,1.65 µM
same,TGI,SNB-75 CNS,20.1 µM
same,GI50,SR leukemia,0.547 µM
same,TGI,SR leukemia,26.3 µM
same,GI50,SW-620 colon,7.63 µM
same,TGI,SW-620 colon,24.5 µM
same,GI50,T-47D breast,2.37 µM
same,TGI,T-47D breast,29.3 µM
same,GI50,TK-10 renal,12.9 µM
same,TGI,TK-10 renal,26.8 µM
same,GI50,U251 CNS,10.9 µM
same,TGI,U251 CNS,26.7 µM
same,GI50,UACC-257 melanoma,0.0793 µM
same,TGI,UACC-257 melanoma,20.1 µM
same,GI50,UACC-62 melanoma,3.75 µM
same,TGI,UACC-62 melanoma,21.7 µM
same,GI50,UO-31 renal,3.66 µM
same,TGI,UO-31 renal,24.6 µM

# From PubChem BioAssay (NCI)
